# Measurements reported in US11661426B2, “Imidazole-containing inhibitors of ALK2 kinase” (BioCryst Pharmaceuticals, Inc., priority 2017, dated 2023).
# Target: ALK2 (Homo sapiens (Human), UniProt Q04771)
# Test: ALK2 inhibition, LanthaScreen Eu Kinase Binding Assay (ThermoFisher Scientific / Life Technologies)
# Conditions: read-out: Measured Ki (IC50) Value for Compounds: IC50
# Procedure: Biochemical assays to measure the inhibitory effects of the compounds were performed by ThermoFisher Scientific (Life Technologies). ALK2 inhibition was tested using LanthaScreen™ Eu Kinase Binding Assay screening protocol.
# Chain of ALK2 (Q04771 21-509): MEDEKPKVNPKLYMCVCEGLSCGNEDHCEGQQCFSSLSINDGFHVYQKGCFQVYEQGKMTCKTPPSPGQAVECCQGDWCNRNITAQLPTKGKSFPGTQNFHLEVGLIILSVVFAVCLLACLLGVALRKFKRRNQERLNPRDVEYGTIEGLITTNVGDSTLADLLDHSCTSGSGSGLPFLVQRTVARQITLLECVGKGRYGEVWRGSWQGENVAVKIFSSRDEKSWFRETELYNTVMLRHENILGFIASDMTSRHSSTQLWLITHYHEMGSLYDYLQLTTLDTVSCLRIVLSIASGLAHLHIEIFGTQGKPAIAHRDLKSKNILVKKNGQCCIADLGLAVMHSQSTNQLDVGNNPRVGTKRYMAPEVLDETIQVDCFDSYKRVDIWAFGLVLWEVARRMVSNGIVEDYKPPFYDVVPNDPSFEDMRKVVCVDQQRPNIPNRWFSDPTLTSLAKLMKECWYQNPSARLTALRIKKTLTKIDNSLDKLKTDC
row,Structure (SMILES),IC50
1,"COc1cc(-n2cnc(Nc3nc4c(c(N5CCC[C@H]5CO)n3)CN(C(=O)OC(C)(C)C)CC4)c2)cc(OC)c1OC [Compound 181c, (S)-tert-butyl 4-(2-(hydroxymethyl)pyrrolidin-1-yl)-2-((1-(3,4,5-trimethoxyphenyl)-1H-imidazol-4-yl)amino)-7,8-dihydropyrido[4,3-d]pyrimidine-6(5H)-carboxylate]",< 100 nM
2,"COc1cc(-n2cnc(Nc3nc4c(c(N5CCC[C@H]5CO)n3)CNCC4)c2)cc(OC)c1OC [Compound 181d, (S)-(1-(2-((1-(3,4,5-trimethoxyphenyl)-1H-imidazol-4-yl)amino)-5,6,7,8-tetrahydropyrido[4,3-d]pyrimidin-4-yl)pyrrolidin-2-yl)methanol]",< 100 nM
3,"COc1cc(-n2cnc(Nc3nc4c(c(N5CCC[C@H]5CO)n3)CCN(C(=O)OC(C)(C)C)C4)c2)cc(OC)c1OC [Compound 182c, (S)-tert-butyl 4-(2-(hydroxymethyl)pyrrolidin-1-yl)-2-((1-(3,4,5-trimethoxyphenyl)-1H-imidazol-4-yl)amino)-5,6-dihydropyrido[3,4-d]pyrimidine-7(8H)-carboxylate]",< 100 nM
4,"COc1cc(-n2cnc(Nc3nc4c(c(N5CCC[C@H]5CO)n3)CCNC4)c2)cc(OC)c1OC [Compound 182d, (S)-(1-(2-((1-(3,4,5-trimethoxyphenyl)-1H-imidazol-4-yl)amino)-5,6,7,8-tetrahydropyrido[3,4-d]pyrimidin-4-yl)pyrrolidin-2-yl)methanol]",< 100 nM
5,"COc1cc(-n2cnc(Nc3nc(N4CCC[C@H]4CO)nc4c3CCN(C(=O)OC(C)(C)C)C4)c2)cc(OC)c1OC [Compound 183b, (S)-tert-butyl 2-(2-(hydroxymethyl)pyrrolidin-1-yl)-4-((1-(3,4,5-trimethoxyphenyl)-1H-imidazol-4-yl)amino)-5,6-dihydropyrido[3,4-d]pyrimidine-7(8H)-carboxylate]",< 100 nM
6,"COc1cc(-n2cnc(Nc3nc(N4CCC[C@H]4CO)nc4c3CCNC4)c2)cc(OC)c1OC [Compound 183c, (S)-(1-(4-((1-(3,4,5-trimethoxyphenyl)-1H-imidazol-4-yl)amino)-5,6,7,8-tetrahydropyrido[3,4-d]pyrimidin-2-yl)pyrrolidin-2-yl)methanol]",< 100 nM
7,"COc1cc(-n2cnc(Nc3nc(N4CCCC4)nc4c3CCN(C(=O)OC(C)(C)C)C4)c2)cc(OC)c1OC [Compound 184a, tert-butyl 2-(pyrrolidin-1-yl)-4-((1-(3,4,5-trimethoxyphenyl)-1H-imidazol-4-yl)amino)-5,6-dihydropyrido[3,4-d]pyrimidine-7(8H)-carboxylate]",< 100 nM
8,"COc1cc(-n2cnc(Nc3nc(N4CCCC4)nc4c3CCNC4)c2)cc(OC)c1OC [Compound 184b, 2-(pyrrolidin-1-yl)-N-(1-(3,4,5-trimethoxyphenyl)-1H-imidazol-4-yl)-5,6,7,8-tetrahydropyrido[3,4-d]pyrimidin-4-amine]",< 100 nM
9,"COc1cc(-n2cnc(Nc3nc(N4CCC[C@H]4C(N)=O)nc4c3CCN(C(=O)OC(C)(C)C)C4)c2)cc(OC)c1OC [Compound 185a, (S)-tert-butyl 2-(2-carbamoylpyrrolidin-1-yl)-4-((1-(3,4,5-trimethoxyphenyl)-1H-imidazol-4-yl)amino)-5,6-dihydropyrido[3,4-d]pyrimidine-7(8H)-carboxylate]",< 100 nM
10,"COc1cc(-n2cnc(Nc3nc(N4CCC[C@H]4C(N)=O)nc4c3CCNC4)c2)cc(OC)c1OC [Compound 185b, (S)-1-(4-((1-(3,4,5-trimethoxyphenyl)-1H-imidazol-4-yl)amino)-5,6,7,8-tetrahydropyrido[3,4-d]pyrimidin-2-yl)pyrrolidine-2-carboxamide]",< 100 nM
11,"COc1cc(-n2cnc(Nc3nc(N4CCCC4)nc4ncccc34)c2)cc(OC)c1OC [Compound 186a, 2-(pyrrolidin-1-yl)-N-(1-(3,4,5-trimethoxyphenyl)-1H-imidazol-4-yl)pyrido[2,3-d]pyrimidin-4-amine]",< 100 nM
12,"COc1cc(-n2cnc(Nc3ncnn4cccc34)c2)cc(OC)c1OC [Compound 187b, N-(1-(3,4,5-trimethoxyphenyl)-1H-imidazol-4-yl)pyrrolo[2,1-f][1,2,4]triazin-4-amine]",< 100 nM
13,"COc1cc(-n2cnc(Nc3nc(N4CCCC4)nc4cccnc34)c2)cc(OC)c1OC [Compound 188a, 2-(pyrrolidin-1-yl)-N-(1-(3,4,5-trimethoxyphenyl)-1H-imidazol-4-yl)pyrido[3,2-d]pyrimidin-4-amine]",< 100 nM
14,"COc1cc(-n2cnc(Nc3nc(N4CCC[C@H]4C(N)=O)nc4ccsc34)c2)cc(OC)c1OC [Compound 189a, (S)-1-(4-((1-(3,4,5-trimethoxyphenyl)-1H-imidazol-4-yl)amino)thieno[3,2-d]pyrimidin-2-yl)pyrrolidine-2-carboxamide]",< 100 nM
15,"COc1cc(-n2cnc(Nc3nc(N4CCC[C@H]4C(N)=O)nc4ccoc34)c2)cc(OC)c1OC [Compound 190a, (S)-1-(4-((1-(3,4,5-trimethoxyphenyl)-1H-imidazol-4-yl)amino)furo[3,2-d]pyrimidin-2-yl)pyrrolidine-2-carboxamide]",< 100 nM
16,"COc1cc(-n2cnc(Nc3nc(N4CCC[C@H]4C(N)=O)c4c(ccn4S(=O)(=O)c4ccc(C)cc4)n3)c2)cc(OC)c1OC [Compound 191b, (S)-1-(5-tosyl-2-((1-(3,4,5-trimethoxyphenyl)-1H-imidazol-4-yl)amino)-5H-pyrrolo[3,2-d]pyrimidin-4-yl)pyrrolidine-2-carboxamide]",< 100 nM
17,"COc1cc(-n2cnc(Nc3nc(N4CCC[C@H]4C(N)=O)c4[nH]ccc4n3)c2)cc(OC)c1OC [Compound 191c, (S)-1-(2-((1-(3,4,5-trimethoxyphenyl)-1H-imidazol-4-yl)amino)-5H-pyrrolo[3,2-d]pyrimidin-4-yl)pyrrolidine-2-carboxamide]",< 100 nM
18,"COc1cc(-n2cnc(Nc3nc(N4CCCC4)c4cccnc4n3)c2)cc(OC)c1OC [Compound 192b, 4-(pyrrolidin-1-yl)-N-(1-(3,4,5-trimethoxyphenyl)-1H-imidazol-4-yl)pyrido[2,3-d]pyrimidin-2-amine]",< 100 nM
19,"COc1cc(-n2cnc(Nc3nc4c(c(N5CCC[C@H]5C(N)=O)n3)CNCC4)c2)cc(OC)c1OC [Compound 193c, (S)-1-(2-((1-(3,4,5-trimethoxyphenyl)-1H-imidazol-4-yl)amino)-5,6,7,8-tetrahydropyrido[4,3-d]pyrimidin-4-yl)pyrrolidine-2-carboxamide]",< 100 nM
20,"COc1cc(-n2cnc(Nc3nc4c(c(N5CCC[C@H]5C(N)=O)n3)CCNC4)c2)cc(OC)c1OC [Compound 194c, (S)-1-(2-((1-(3,4,5-trimethoxyphenyl)-1H-imidazol-4-yl)amino)-5,6,7,8-tetrahydropyrido[3,4-d]pyrimidin-4-yl)pyrrolidine-2-carboxamide]",< 100 nM
21,"COc1cc(-n2cnc(Nc3cc4ccccc4cn3)c2)cc(OC)c1OC [Compound 195b, N-(1-(3,4,5-trimethoxyphenyl)-1H-imidazol-4-yl)isoquinolin-3-amine]",< 100 nM
22,"COc1cc(-n2cnc(Nc3nc(N4CCC[C@H]4C(N)=O)c4ncsc4n3)c2)cc(OC)c1OC [Compound 196b, (S)-1-(5-((1-(3,4,5-trimethoxyphenyl)-1H-imidazol-4-yl)amino)thiazolo[5,4-d]pyrimidin-7-yl)pyrrolidine-2-carboxamide]",< 100 nM
